Here are results for 45 compounds from patent publication US8431704B2, “Quinoline or isoquinoline substituted P2X7 antagonists” (Janssen Pharmaceutica NV, priority 2008, dated 2013).

Molecules are shown by their SMILES.

The target of this test is T1, P2X7 (Homo sapiens, UniProt Q99572).
T1 construct: endogenous in cells; host or cells: THP-1 human monocytic cell line
T1 sequence (Q99572 1-595): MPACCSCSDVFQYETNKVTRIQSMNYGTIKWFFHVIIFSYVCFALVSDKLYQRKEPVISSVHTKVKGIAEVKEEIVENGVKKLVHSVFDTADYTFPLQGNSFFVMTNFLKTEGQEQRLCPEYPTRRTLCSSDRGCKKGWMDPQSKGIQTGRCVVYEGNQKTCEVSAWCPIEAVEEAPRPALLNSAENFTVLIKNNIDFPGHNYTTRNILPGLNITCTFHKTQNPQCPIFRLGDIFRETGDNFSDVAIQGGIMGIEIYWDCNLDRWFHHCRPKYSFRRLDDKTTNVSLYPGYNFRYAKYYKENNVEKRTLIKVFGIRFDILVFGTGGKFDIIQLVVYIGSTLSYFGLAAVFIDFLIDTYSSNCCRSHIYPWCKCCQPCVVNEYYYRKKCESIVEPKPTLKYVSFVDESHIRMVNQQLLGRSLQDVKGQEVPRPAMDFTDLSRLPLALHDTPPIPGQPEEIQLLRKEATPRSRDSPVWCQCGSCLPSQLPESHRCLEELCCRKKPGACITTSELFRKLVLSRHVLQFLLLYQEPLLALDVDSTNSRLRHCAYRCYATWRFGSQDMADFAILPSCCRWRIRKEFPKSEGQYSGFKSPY
In words: THP-1 YoPro uptake assay (BzATP-stimulated Yo-Pro-1 uptake). The class given is cell-based. The note with it: Table F-10, THP-1 cells, read-out: mean pIC50 values for P2X7 antagonism (converted). The procedure:
The human monocytic cell line THP-1 was grown as a suspension culture in RPMI medium supplemented with 10% fetal bovine serum, penicillin/streptomycin (50 units/mL), 2 mM L-glutamine, and 20 μM 2-mercaptoethanol. Cells were maintained at a density below 0.5 million per mL. On the day of the assay, cells were washed twice with assay buffer, and then resuspended at 2 million per mL in assay buffer containing 2 μM Yo-Pro-1 (Invitrogen). The assay buffer contained (in mM): 280 sucrose, 5 KCl, 10 glucose, 10 HEPES, 5 N-methyl-D-glucamine. The cells were added at 200 k/well into poly-D-lysine-coated black-walled 96-well plates (Biocoat, Becton-Dickinson). Test compounds were dissolved in DMSO, and then added at the test concentration to each well of the 96-well plate. Concentration dependence of block was determined by exposing each well of cells in duplicate rows of a 96-well plate to a serial dilution of test compound. The concentration series usually started at 10 μM with a three-fold decrement in concentration. The final DMSO concentration seen by the cells was less than 0.5%. Cells were incubated with test compounds for 30 minutes at 37° C. A background reading was taken using a Gemini SpectraMax with 490 nm excitation and 530 nm emission. […] After incubation for 60 minutes at 37° C., an endpoint read was taken in the SpectraMax plate reader. The amount of block of the response was determined by comparing the fluorescence intensity in each well to the average of control wells on each plate. The control wells contained either a known antagonist of P2X7 (positive controls) or a concentration of DMSO equal to that in the test wells. Data were analyzed using a nonlinear regression program (Origin, OriginLab, MA). Results are reported as the −log of the IC50 (pIC50).

For `O=C(NCC(c1cnc(C(F)(F)F)nc1)N1CCCCC1)c1c(Cl)ccc2nc(N3CCOCC3)ccc12` (stereo not drawn) [Compound 548], the IC50 was 1.91 nM.

Turning to `O=C(NCC(c1cnc(C(F)(F)F)nc1)N1CCC(F)(F)CC1)c1c(Cl)ccc2nc(O)ccc12` (stereo not drawn) [Compound 593], the IC50 was 112 nM. As to `CN(CCN)c1ccc2c(C(=O)NCC(c3cnc(C(F)(F)F)nc3)N3CCC(F)(F)CC3)c(Cl)ccc2n1` (stereo not drawn) [Compound 511], the IC50 was 4.79 nM. The figure for `O=C(NCC(c1cnc(C(F)(F)F)nc1)N1CCCCC1)c1c(Cl)ccc2nc(N3CCC(O)CC3)ccc12` (stereo not drawn) [Compound 546] is 4.79 nM. The figure for `N[C@H]1CCCN(c2ccc3c(C(=O)NCC(c4cnc(C(F)(F)F)nc4)N4CCC(F)(F)CC4)c(Cl)ccc3n2)C1` (stereo partly drawn) [Compound 424] is 2.24 nM. The figure for `O=C(NCC(c1cnc(C(F)(F)F)nc1)N1CCOCC1)c1c(Cl)ccc2nc(NCc3ccc(F)cc3)ccc12` (stereo not drawn) [Compound 438] is 22.9 nM.

Turning to `CNC1CN(c2ccc3c(C(=O)NCC(c4cnc(C(F)(F)F)nc4)N4CCOCC4)c(Cl)ccc3n2)C1` (stereo not drawn) [Compound 522], the IC50 is 24.5 nM. For `O=C(NCC(c1cnc(C(F)(F)F)nc1)N1CCOCC1)c1c(Cl)ccc2nc(NC3CC3)ccc12` (stereo not drawn) [Compound 501], the IC50 is 10.2 nM. The figure for `C[C@@H]1CN(c2ccc3c(C(=O)NCC(c4cnc(C(F)(F)F)nc4)N4CCC(F)(F)CC4)c(Cl)ccc3n2)C[C@H](C)O1` (stereo partly drawn) [Compound 494] is 14.1 nM; for `O=C(NCC(c1cnc(C(F)(F)F)nc1)N1CCC(F)(F)CC1)c1c(Cl)ccc2nc(NCCO)ccc12` (stereo not drawn) [Compound 495] it is 7.41 nM. The figure for `CNCCCN(C)c1ccc2c(C(=O)NCC(c3cnc(C(F)(F)F)nc3)N3CCOCC3)c(Cl)ccc2n1` (stereo not drawn) [Compound 433] is 11.5 nM; for `N[C@@H]1CCN(c2ccc3c(C(=O)NCC(c4cnc(C(F)(F)F)nc4)N4CCOCC4)c(Cl)ccc3n2)C1` (stereo partly drawn) [Compound 561] it is 1.35 nM. The figure for `O=C(NCC(c1cnc(C(F)(F)F)nc1)N1CCOCC1)c1c(Cl)ccc2nc(NCCO)ccc12` (stereo not drawn) [Compound 498] is 9.12 nM; for `NCCNc1ccc2c(C(=O)NCC(c3cnc(C(F)(F)F)nc3)N3CCOCC3)c(Cl)ccc2n1` (stereo not drawn) [Compound 557] it is 1.12 nM.

As for `O=C(NCC(c1cnc(C(F)(F)F)nc1)N1CCOCC1)c1c(Cl)ccc2nc(N3CCC(N4CCCC4=O)CC3)ccc12` (stereo not drawn) [Compound 442], the IC50 is 224 nM. On to `CC(C)N1CCN(c2ccc3c(C(=O)NCC(c4cnc(C(F)(F)F)nc4)N4CCOCC4)c(Cl)ccc3n2)CC1` (stereo not drawn) [Compound 410], for which the IC50 is 5.01 nM.

For the compound `O=C(NCC(c1cnc(C(F)(F)F)nc1)N1CCOCC1)c1c(Cl)ccc2nc(N3CCCOCC3)ccc12` (stereo not drawn) [Compound 459], the IC50 is 2.63 nM. The figure for `O=C(NCC(c1cnc(C(F)(F)F)nc1)N1CCOCC1)c1c(Cl)ccc2nc(N3CCOCC3)ccc12` (stereo not drawn) [Compound 502] is 13.8 nM; for `CC1(O)CCN(c2ccc3c(C(=O)NCC(c4cnc(C(F)(F)F)nc4)N4CCOCC4)c(Cl)ccc3n2)CC1` (stereo not drawn) [Compound 516] it is 9.77 nM. `O=C(O)CCCNc1ccc2c(C(=O)NCC(c3cnc(C(F)(F)F)nc3)N3CCOCC3)c(Cl)ccc2n1` (stereo not drawn) [Compound 463]: the IC50 is 380 nM.

`O=C(NCC(c1cnc(C(F)(F)F)nc1)N1CCC(F)(F)CC1)c1c(Cl)ccc2nc(NCC3CC3)ccc12` (stereo not drawn) [Compound 507]: the IC50 was 13.5 nM. The result for `O=C(NCC(c1cnc(C(F)(F)F)nc1)N1CCOCC1)c1c(Cl)ccc2nc(N3CCNCC3)ccc12` (stereo not drawn) [Compound 504] reads 6.92 nM. The figure for `C[C@@H]1CN(c2ccc3c(C(=O)NCC(c4cnc(C(F)(F)F)nc4)N4CCOCC4)c(Cl)ccc3n2)C[C@H](C)O1` (stereo partly drawn) [Compound 503] is 37.2 nM. On to `CC(C)N1CCN(c2ccc3c(C(=O)NCC(c4cnc(C(F)(F)F)nc4)N4CCC(F)(F)CC4)c(Cl)ccc3n2)CC1` (stereo not drawn) [Compound 427], for which the IC50 is 3.39 nM. The figure for `O=C(NCC(c1cnc(C(F)(F)F)nc1)N1CCOCC1)c1c(Cl)ccc2nc(N3CC(O)C3)ccc12` (stereo not drawn) [Compound 458] is 3.02 nM; for `O=C(NCC(c1cnc(C(F)(F)F)nc1)N1CCC(F)(F)CC1)c1c(Cl)ccc2nc(N3CCC(c4n[nH]c(=O)[nH]4)CC3)ccc12` (stereo not drawn) [Compound 515] it is 5.62 nM; for `O=C(NCC(c1cnc(C(F)(F)F)nc1)N1CCOCC1)c1c(Cl)ccc2nc(N3CCCC3)ccc12` (stereo not drawn) [Compound 415] it is 2.4 nM.

For the compound `CS(=O)(=O)NCCNc1ccc2c(C(=O)NCC(c3cnc(C(F)(F)F)nc3)N3CCOCC3)c(Cl)ccc2n1` (stereo not drawn) [Compound 553], the IC50 is 17.4 nM. The result for `CC(=O)N1C[C@H]2CC[C@@H]1N(c1ccc3c(C(=O)NCC(c4cnc(C(F)(F)F)nc4)N4CCOCC4)c(Cl)ccc3n1)C2` (stereo partly drawn) [Compound 443] reads 282 nM; that for `O=C(NCC(c1cnc(C(F)(F)F)nc1)N1CCC(F)(F)CC1)c1c(Cl)ccc2nc(N3CC(CO)C3)ccc12` (stereo not drawn) [Compound 510], 3.47 nM; that for `CN1CCN(c2ccc3c(C(=O)NCC(c4cnc(C(F)(F)F)nc4)N4CCOCC4)c(Cl)ccc3n2)CC1` (stereo not drawn) [Compound 505], 5.13 nM. In the case of `O=C(NCC(c1cnc(C(F)(F)F)nc1)N1CCOCC1)c1c(Cl)ccc2nc(NCc3ccc4c(c3)OCO4)ccc12` (stereo not drawn) [Compound 440], the IC50 is 37.2 nM. The result for `O=C(NCC(c1cnc(C(F)(F)F)nc1)N1CCOCC1)c1c(Cl)ccc2nc(N3CCC4(CCCN4)C3)ccc12` (stereo not drawn) [Compound 519] reads 7.08 nM; that for `O=C(NCC(c1cnc(C(F)(F)F)nc1)N1CCCCC1)c1c(Cl)ccc2nc(NCC(O)CO)ccc12` (stereo not drawn) [Compound 550], 2.34 nM; that for `O=C(NCC(c1cnc(C(F)(F)F)nc1)N1CCC(F)(F)CC1)c1c(Cl)ccc2nc(N3CCOCC3)ccc12` (stereo not drawn) [Compound 403], 14.8 nM. On to `O=C(NCC(c1cnc(C(F)(F)F)nc1)N1CCOCC1)c1c(Cl)ccc2nc(N3CC4COCC4C3)ccc12` (stereo not drawn) [Compound 525], for which the IC50 was 52.5 nM.

Take `C[C@H]1CCCN(c2ccc3c(C(=O)NCC(c4cnc(C(F)(F)F)nc4)N4CCOCC4)c(Cl)ccc3n2)C1` (stereo partly drawn) [Compound 454]: the IC50 is 19.1 nM. Regarding `O=C(NCC(c1cnc(C(F)(F)F)nc1)N1CCOCC1)c1c(Cl)ccc2nc(N3CCC(O)CC3)ccc12` (stereo not drawn) [Compound 452], the IC50 is 19.5 nM.

`O=C(NCC(c1cnc(C(F)(F)F)nc1)N1CCOCC1)c1c(Cl)ccc2nc(NC3CCOCC3)ccc12` (stereo not drawn) [Compound 554]: the IC50 was 12.6 nM.

Regarding `O=C(NCC(c1cnc(C(F)(F)F)nc1)N1CCOCC1)c1c(Cl)ccc2nc(NCCNCCO)ccc12` (stereo not drawn) [Compound 514], the IC50 was 7.59 nM. The figure for `O=C(NCC(c1cnc(C(F)(F)F)nc1)N1CCOCC1)c1c(Cl)ccc2nc(N3CCC3)ccc12` (stereo not drawn) [Compound 416] is 1.74 nM; for `CS(=O)(=O)N[C@@H]1CCN(c2ccc3c(C(=O)NCC(c4cnc(C(F)(F)F)nc4)N4CCOCC4)c(Cl)ccc3n2)C1` (stereo partly drawn) [Compound 552] it is 17.8 nM. The figure for `CCC(C)Nc1ccc2c(C(=O)NCC(c3cnc(C(F)(F)F)nc3)N3CCOCC3)c(Cl)ccc2n1` (stereo not drawn) [Compound 457] is 0.955 nM; for `CNc1ccc2c(C(=O)NCC(c3cnc(C(F)(F)F)nc3)N3CCC(F)(F)CC3)c(Cl)ccc2n1` (stereo not drawn) [Compound 492] it is 2.45 nM; for `O=C(NCC(c1cnc(C(F)(F)F)nc1)N1CCOCC1)c1c(Cl)ccc2nc(N3CC[C@@H](O)C3)ccc12` (stereo partly drawn) [Compound 499] it is 20.9 nM.
